{"source": "patent US7776883B2", "about": "“Quinolin-4-ones as inhibitors of retroviral integrase for the treatment of HIV, AIDS and AIDS related complex (ARC)” (The United States of America as represented by the …, priority 2004, dated 2010)", "key": {"[1]": {"test_system": "HIV-1, IIIB strain", "assay": "Inhibition of HIV-1-induced cytopathicity in acutely infected MT-4 cells (MTT method)", "format": "cell-based", "conditions": "Human immunodeficiency virus 1, IIIB, MT4, 96 h, 4-day incubation, read-out: 50% effective concentration value (EC50)", "experimental": "Several of the compounds disclosed herein were tested for their ability to inhibit HIV cell multiplication. The compounds were solubilized in dimethyl sulfoxide at 200 mM and then diluted into culture medium. MT-4, C8166, H9/IIIB cells were grown at 37° C. in a 5% CO2 atmosphere in RPMI 1640 medium, supplemented with 10% fetal calf serum (FCS), 100 IU/mL penicillin G and 100 μg/mL streptomycin. Cell cultures were checked periodically for the absence of mycoplasma contamination with a MycoTect Kit (Gibco). Human immunodeficiency viruses type-1 (HIV-1, IIIB strain) were obtained from supernatants of persistently infected H9/IIIB. HIV-1 stock solutions had titres of 4.5×10^6 50% cell culture infectious dose (CCID50)/mL. Titration of HIV-1 was performed in C8166 cells by the standard limiting dilution method (dilution 1:2, four replica wells/dilution) in 96-well plates. The infectious virus titer was determined by light microscope scoring of cytopathicity after 4 days of incubation and the virus titers were expressed as CCID50/mL.\nActivity of the compounds against HIV-1 multiplication in acutely infected cells was based on the inhibition of virus-induced cytopathicity in MT-4 cells. Briefly, 50 μL of culture medium containing 1×10^4 cells were added to each well of flat-bottom microtiter trays containing 50 μL of culture medium with or without various concentrations of the test compounds. Then 20 μL of an HIV-1 suspension containing 100 CCID50 was added. After a 4-day incubation at 37° C., the number of viable cells was determined by the 3-(4,5-dimethylthiazol-[…])-2,5-diphenyltetrazolium bromide (MTT) method (Pauwels, R.; Balzarini, J.; Baba, M.; Snoeck, R.; Schols, D.; Herdewijn, P.; Desmyster, J.; De Clercq, E. J. Virol. Methods 1988, 20, 309-321). Cytotoxicity of the compounds was evaluated in parallel with their antiviral activity, and was based on the viability of mock-infected cells, as monitored by the MTT method."}}}
{"smiles": "CCOC(=O)C(=O)CC(=O)c1cn(Cc2ccc(F)cc2)c2ccccc2c1=O", "note": "[RDS1624, 4-[1-(4-fluorophenyl)methyl-1,4-dihydro-4-oxoquinolin-3-yl]-2,4-dioxobutanoic acid ethyl ester]", "values": [{"measurement": "EC50", "setting": "[1]", "result": 3.5, "unit": "µM"}]}
{"smiles": "O=C(O)C(=O)CC(=O)c1cn(Cc2ccc(F)cc2)c2ccccc2c1=O", "note": "[RDS1625, 4-[1-(4-fluorophenyl)methyl-1,4-dihydro-4-oxoquinolin-3-yl]-2,4-dioxobutanoic acid]", "values": [{"measurement": "EC50", "setting": "[1]", "result": 40, "unit": "µM"}, {"measurement": "melting point", "result": "207 to 209", "unit": "°C"}]}
